# Measurements reported in patent US20230399312A1, “SUBSTITUTED PYRIMIDINES AND METHODS OF USE” (THERAVANCE BIOPHARMA R&D IP, LLC, priority 2020, published 2023).
# What was measured:
# [1] = tested on: TGF-β-stimulated SMAD3 phosphorylation in BEAS-2B cells; assay: Cellular ALK5 potency assay, inhibition of TGF-β stimulated pSMAD3 formation in BEAS-2B cells; format: cell-based; settings: Homo sapiens, pSMAD3, TGF-β 10 ng/mL, read-out: BEAS2B pIC50 (converted)
# Method in brief: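 Cells were seeded overnight, rinsed into HEPES/BSA-supplemented HBSS, and dosed with serially diluted compound for 1 h at 37 °C, 5% CO2. TGF-β stimulation (10 ng/mL final) followed for 30 min, then lysis and AlphaLISA pSMAD3 measurement; potency reported as pIC50.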
# [2] = molecular target: T1, recombinant human ALK5 (TGF-βR1) protein (Homo sapiens, UniProt P36897); assay: Biochemical ALK5 (TGF-βR1) assay to measure pKi (LANCE Ultra ULight kinase assay); settings: apparent pKi, converted from pIC50 by Cheng-Prusoff
# T1 construct: purchased Life Technologies PR9075A
# T1 sequence (P36897 34-503): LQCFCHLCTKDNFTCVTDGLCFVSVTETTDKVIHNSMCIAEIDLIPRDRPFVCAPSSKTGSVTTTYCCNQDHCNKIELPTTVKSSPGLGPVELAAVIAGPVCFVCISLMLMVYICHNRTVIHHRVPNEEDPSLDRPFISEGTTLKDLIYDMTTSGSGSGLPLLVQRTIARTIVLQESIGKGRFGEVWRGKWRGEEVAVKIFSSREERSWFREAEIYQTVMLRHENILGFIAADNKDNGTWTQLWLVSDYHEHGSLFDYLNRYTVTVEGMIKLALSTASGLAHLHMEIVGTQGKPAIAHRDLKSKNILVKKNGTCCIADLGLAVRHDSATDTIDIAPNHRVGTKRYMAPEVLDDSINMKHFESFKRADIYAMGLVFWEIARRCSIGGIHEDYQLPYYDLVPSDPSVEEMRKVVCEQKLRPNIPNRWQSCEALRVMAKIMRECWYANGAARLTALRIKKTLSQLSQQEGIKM
# Method in brief: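 Dose-response series of each compound were preincubated with the kinase for 60 minutes at room temperature. Phosphorylation proceeded for 60 minutes at 37 °C after ATP addition, was quenched with EDTA, and was detected with a europium anti-phospho-Thr1342 antibody by TR-FRET; pKi was calculated from pIC50.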
Compound,IC50 [1],Ki [2]
"Cc1cccc(-c2nccc(Nc3ccnc(Nc4cccc(CN5C[C@@H](C)N[C@@H](C)C5)c4)n3)n2)n1 [Compound 519, N4-[2-(6-methyl-2-pyridyl)pyrimidin-4-yl]-N2-[3-[[rac-(3R,5S)-3,5-dimethylpiperazin-1-yl]methyl]phenyl]pyrimidine-2,4-diamine]",25.1 to 158 nM,0.0398 to 0.316 nM
"Cc1cccc(-c2nccc(Nc3ccnc(Nc4nc(C(=O)NC5(CO)CCNC5)cs4)n3)n2)n1 (centres unmarked) [Compound 520, N-[3-(hydroxymethyl)pyrrolidin-3-yl]-2-[[4-[[2-(6-methyl-2-pyridyl)pyrimidin-4-yl]amino]pyrimidin-2-yl]amino]thiazole-4-carboxamide]",25.1 to 158 nM,0.0398 to 0.316 nM
"Cc1cccc(-c2nccc(Nc3ccnc(Nc4cccc(CN5CCN(C)CC5)c4)n3)n2)n1 [Compound 521, N2-[3-[(4-methylpiperazin-1-yl)methyl]phenyl]-N4-[2-(6-methyl-2-pyridyl)pyrimidin-4-yl]pyrimidine-2,4-diamine]",25.1 to 158 nM,0.0398 to 0.316 nM
"Cc1cccc(-c2nccc(Nc3ccnc(Nc4cc(C(=O)O[C@@H]5CCN(C)C5)cs4)n3)n2)n1 [Compound 522, [(3R)-1-methylpyrrolidin-3-yl] 5-[[4-[[2-(6-methyl-2-pyridyl)pyrimidin-4-yl]amino]pyrimidin-2-yl]amino]thiophene-3-carboxylate]",25.1 to 158 nM,0.0398 to 0.316 nM
"Cc1cccc(-c2nccc(Nc3ccnc(Nc4ccc(CN5CCNC(C(=O)OCC(C)C)C5)cc4)n3)n2)n1 (centres unmarked) [Compound 523, isobutyl 4-[[4-[[4-[[2-(6-methyl-2-pyridyl)pyrimidin-4-yl]amino]pyrimidin-2-yl]amino]phenyl]methyl] piperazine-2-carboxylate]",≤ 20 nM,0.0398 to 0.316 nM
"Cc1cccc(-c2nccc(Nc3ccnc(Nc4ccc5c(c4)CC(N)C5)n3)n2)n1 (centres unmarked) [Compound 524, N2-(2-aminoindan-5-yl)-N4-[2-(6-methyl-2-pyridyl)pyrimidin-4-yl]pyrimidine-2,4-diamine]",25.1 to 158 nM,0.0398 to 0.316 nM
"Cc1cccc(-c2nccc(Nc3ccnc(Nc4ccc(N5CCC(CNCC(C)C)CC5)cc4)n3)n2)n1 [Compound 525, N2-[4-[4-[(isobutylamino)methyl]-1-piperidyl]phenyl]-N4-[2-(6-methyl-2-pyridyl)pyrimidin-4-yl]pyrimidine-2,4-diamine]",25.1 to 158 nM,0.398 to 3.16 nM
"Cc1cccc(-c2nccc(Nc3ccnc(Nc4ccc5c(c4)OCCO5)n3)n2)n1 [Compound 526, N2-(2,3-dihydro-1,4-benzodioxin-6-yl)-N4-[2-(6-methyl-2-pyridyl)pyrimidin-4-yl]pyrimidine-2,4-diamine]",25.1 to 158 nM,3.98 to 31.6 nM
"Cc1cccc(-c2nccc(Nc3ccnc(Nc4ccc(S(=O)(=O)N5CCN(C6CC6)CC5)cc4)n3)n2)n1 [Compound 527, N2-[4-(4-cyclopropylpiperazin-1-yl)sulfonylphenyl]-N4-[2-(6-methyl-2-pyridyl)pyrimidin-4-yl]pyrimidine-2,4-diamine]",25.1 to 158 nM,0.398 to 3.16 nM
"CCOC(=O)Cc1cc(Nc2ccnc(Nc3ccc(N4CCNCC4)cc3)n2)nc(-c2cccc(C)n2)n1 [Compound 529, ethyl 2-[2-(6-methyl-2-pyridyl)-6-[[2-(4-piperazin-1-ylanilino)pyrimidin-4-yl]amino]pyrimidin-4-yl]acetate]",25.1 to 158 nM,3.98 to 31.6 nM
"Cc1cccc(-c2nccc(Nc3ccnc(Nc4ccc(N5CCNCC5)c(CC(=O)OC5CNC5)c4)n3)n2)n1 [Compound 530, azetidin-3-yl 2-[5-[[4-[[2-(6-methyl-2-pyridyl)pyrimidin-4-yl]amino]pyrimidin-2-yl]amino]-2-piperazin-1-yl-phenyl]acetate]",200 to 1260 nM,0.0398 to 0.316 nM
"Cc1cccc(-c2nccc(Nc3ccnc(Nc4cccc(NC(=O)N5CCN(C(C)C)CC5)c4)n3)n2)n1 [Compound 531, 4-isopropyl-N-[3-[[4-[[2-(6-methyl-2-pyridyl)pyrimidin-4-yl]amino]pyrimidin-2-yl]amino]phenyl]piperazine-1-carboxamide]",25.1 to 158 nM,0.0398 to 0.316 nM
"Cc1cccc(-c2nccc(Nc3ccnc(Nc4cc(C(=O)O)cs4)n3)n2)n1 [Compound 532, 5-[[4-[[2-(6-methyl-2-pyridyl)pyrimidin-4-yl]amino]pyrimidin-2-yl]amino]thiophene-3-carboxylic acid]",200 to 1260 nM,0.398 to 3.16 nM
"Cc1cccc(-c2nccc(Nc3ccnc(Nc4ccc(CN5CCN(CC(C)C)CC5)cc4)n3)n2)n1 [Compound 533, N2-[4-[(4-isobutylpiperazin-1-yl)methyl]phenyl]-N4-[2-(6-methyl-2-pyridyl)pyrimidin-4-yl]pyrimidine-2,4-diamine]",25.1 to 158 nM,0.0398 to 0.316 nM
"Cc1cccc(-c2nccc(Nc3ccnc(Nc4ccc(N5CCN(CCO)CC5)cc4)n3)n2)n1 [Compound 534, 2-[4-[4-[[4-[[2-(6-methyl-2-pyridyl)pyrimidin-4-yl]amino]pyrimidin-2-yl]amino]phenyl]piperazin-1-yl]ethanol]",25.1 to 158 nM,0.0398 to 0.316 nM
"Cc1cccc(-c2nccc(Nc3ccnc(Nc4ccc(-c5cn[nH]c5)cc4)n3)n2)n1 [Compound 535, N4-[2-(6-methyl-2-pyridyl)pyrimidin-4-yl]-N2-[4-(1H-pyrazol-4-yl)phenyl]pyrimidine-2,4-diamine]",≤ 20 nM,3.98 to 31.6 nM
"Cc1cccc(-c2nccc(Nc3ccnc(Nc4csc(C(=O)N5CCN[C@@H](CO)C5)c4)n3)n2)n1 [Compound 536, [(3R)-3-(hydroxymethyl)piperazin-1-yl]-[4-[[4-[[2-(6-methyl-2-pyridyl)pyrimidin-4-yl]amino]pyrimidin-2-yl]amino]-2-thienyl]methanone]",25.1 to 158 nM,0.0398 to 0.316 nM
"Cc1cccc(-c2nccc(Nc3ccnc(Nc4ccc(NCC5CNC5)cc4)n3)n2)n1 [Compound 537, N2-(4-((azetidin-3-ylmethyl)amino)phenyl)-N4-(2-(6-methylpyridin-2-yl)pyrimidin-4-yl)pyrimidine-2,4-diamine]",25.1 to 158 nM,0.0398 to 0.316 nM
"Cc1cccc(-c2nccc(Nc3ccnc(Nc4ccc(-c5cnn(C6COC6)c5)cc4)n3)n2)n1 [Compound 538, N4-(2-(6-methylpyridin-2-yl)pyrimidin-4-yl)-N2-(4-(1-(oxetan-3-yl)-1H-pyrazol-4-yl)phenyl)pyrimidine-2,4-diamine]",25.1 to 158 nM,0.0398 to 0.316 nM
"Cc1cccc(-c2nccc(Nc3ccnc(Nc4ccc(C5CNCCN5)cc4)n3)n2)n1 (centres unmarked) [Compound 539, N4-[2-(6-methyl-2-pyridyl)pyrimidin-4-yl]-N2-(4-piperazin-2-ylphenyl)pyrimidine-2,4-diamine]",25.1 to 158 nM,≤ 0.0316 nM
"Fc1cc(F)c(-c2ncc(C3CC3)c(Nc3ccnc(Nc4ccc(N5CCNCC5)cc4)n3)n2)cc1Cl [Compound 540, N4-[2-(5-chloro-2,4-difluoro-phenyl)-5-cyclopropyl-pyrimidin-4-yl]-N2-(4-piperazin-1-ylphenyl)pyrimidine-2,4-diamine]",1580 to 10000 nM,0.0398 to 0.316 nM
"Cc1cccc(-c2nccc(Nc3ccnc(Nc4ccc(S(=O)(=O)N5CCN(CCO)CC5)cc4)n3)n2)n1 [Compound 541, 2-[4-[4-[[4-[[2-(6-methyl-2-pyridyl)pyrimidin-4-yl]amino]pyrimidin-2-yl]amino]phenyl]sulfonylpiperazin-1-yl]ethanol]",25.1 to 158 nM,0.0398 to 0.316 nM
